Assay results from patent US12558340B2, “ANAVEX2-73 for the treatment of genetic neurodevelopmental disorders” (ANAVEX LIFE SCIENCES CORP., priority 2019, dated 2026).

Key:
physchem = format: physicochemical
From the text: Dosage formulations used in the disclosed methods comprise a therapeutically effective amount of ANAVEX2-73, the crystalline HCI salt of tetrahydro-N,N-dimethyl-2,2-diphenyl-3-furanmethanamine, or tetrahydro-N,N-dimethyl-2,2-diphenyl-3-furanmethanamine hydrochloride (IUPAC name: 1-(2,2-diphenyloxolan-3-yl)-A/,A/-dimethylmethanamine hydrochloride). […] Thus ANAVEX2-73 (used herein to refer to the HCI salt or the free base) is highly amenable to incorporation in the dosage formulations disclosed herein. For example, ANAVEX2-73 as either the HCI salt or the free base has a relatively low molecular weight (<400 Da), and is thus well suited for transmucosal or transdermal delivery, or rapid oral delivery. ANAVEX2-73 has a pKa around 8-9, which also makes it well-suited for transmucosal delivery. Therapeutically effective doses of ANAVEX2-73 are well suited for various thin film formulations, including oral and transdermal thin film formulations.

[1] = system: subject diagnosed with Rett Syndrome; assay: Example 1: liquid formulation given to a subject with Rett Syndrome; format: in vivo, human; conditions: 5 mL of a liquid formulation (0.2 mg/mL)
Method: A subject diagnosed with Rett Syndrome was administered 5 mL of a liquid formulation (0.2 mg/mL).

[2] = system: female subjects diagnosed with Rett Syndrome; assay: Example 5: 7-week daily treatment of Rett Syndrome subjects (RSBQ, CGI-I); format: in vivo, human
Method: Six female subjects ranging from 16 to 22 years of age diagnosed with Rett Syndrome were administered 5 mg ANAVEX2-73 liquid formulation (1 m_of a 5 mg/mI_ANAVEX2-73 solution) daily for a total daily dose of […], over a period of 7 weeks.
(§1) For efficacy, the following parameters were measured in the female subjects: Rett Syndrome Behavior Questionare (RSBQ), Clinical Global Impressions (CGI-I), hand behaviors (RSBQ), breathing problems (RSBQ), waking during sleep (RSBQ), and glutamate biomarker, and GABA biomarkers.
Evaluation of the efficacy was measured as a comparison from baseline (week 0), week 4, and to end of treatment (week 7). Blood plasma samples were analyzed at week 0 and at week 7 to measure the levels of glutamate and GABA biomarkers. The evaluation of efficacy used a two-tailed statistical analysis.

[3] = system: glutamate biomarker in plasma; assay: Example 5: glutamate biomarker in plasma of Rett Syndrome subjects; format: in vivo, human; conditions: week 0 vs week 7; Wilcoxon p (2-tailed)=0.046
From the text: In one aspect, the method further comprises measuring, or having measured or obtained a baseline biomarker level in the subject prior to treatment with ANAVEX2-73 as described herein, wherein the biomarker comprises plasma glutamate, gamma aminobutyric acid (GABA), PI3K, pAkt, mTOR, pMAPK, pERK, or any combinations thereof, and measuring or having measured or obtained at least a second level of the biomarker following a period of treatment with ANAVEX2-73 as described herein. […]
as §1
Evaluation of the efficacy was measured as a comparison from baseline (week 0), week 4, and to end of treatment (week 7). Blood plasma samples were analyzed at week 0 and at week 7 to measure the levels of glutamate and GABA biomarkers. […]

[4] = system: subject diagnosed with Rett Syndrome; assay: Example 6: liquid formulation given to a subject with Rett Syndrome; format: in vivo, human; conditions: 1 mL of a liquid formulation (0.2 mg/mL)
Method: A subject, diagnosed with Rett Syndrome is administered 1 mL of a liquid formulation (0.2 mg/mL).

pAkt = pAkt levels in peripheral lymphocytes of Fmr1 KO2 mice (flow cytometry); format: in vivo
Method: (§2) In the aforementioned study by Reyes et al., ANAVEX2-73 or saline were administered twice daily at a dose of 1 mg/kg IP, to 2-month-old Fmr1 KO2 mice and wild type counterparts (N=10 mice per group, 40 mice total; for blood sample analyses: 5-7 mice per group) for two weeks. Brain samples were harvested for biochemical and molecular studies, blood samples were collected at baseline and on the last day of the behavioral assessments. Complementary cell signaling analyses were also conducted. These analyses were important because of their relevance to both preclinical and clinical research in FXS. Peripheral lymphocytes were isolated and stimulated with Phorbol-12-Myristate-13-Acetate in a buffer without phosphatase inhibitors but with U0126 (inhibitor of MAPK kinase). […] Resuspended cells were analyzed in a Coulter XL3 flow cytometer. […] Levels of pAkt and pERK were first characterized in terms of distribution, by the Shapiro-Wilk test of normality and Levene's and Bartlett's tests, which determined that all data were distributed normally and had equal variances. […] Once a significant difference was found, a two-way univariate ANOVA with genotype and treatment as between-subject factors, followed by a Tukey's post-hoc test, evaluated the differences between drug-treated and vehicle-treated WT and Fmr1 KO2 mice. […]

pERK = pERK levels in peripheral lymphocytes of Fmr1 KO2 mice (flow cytometry); format: in vivo; conditions: 1 mg/kg IP twice daily for two weeks, 7 per group, t-test p=0.046, post-hoc p=0.096
Method: as §2

[5] = system: Fmr1 knockout 2 mice, KO2; conditions: 1 mg/kg IP twice daily for two weeks; cited from earlier work
BDNF = conditions: 1 mg/kg IP twice daily for two weeks; cited from earlier work
healthy male volunteers = conditions: cited from earlier work

CN(C)CC1CCOC1(c1ccccc1)c1ccccc1.Cl (stereo not drawn) [ANAVEX2-73, tetrahydro-N,N-dimethyl-2,2-diphenyl-3-furanmethanamine hydrochloride]
chemical stability (physchem): excellent
pKa (physchem): 8 to 9
solubility in organic solvents (physchem): soluble in almost all organic solvents
water solubility (physchem): high
cognition [1]: improvement
motor skills [1]: improvement
RSBQ and CGI-I ([2]; after 7 weeks, p=0.003): reduction
improvement in the RSBQ (total score) ([2]; all six subjects, 5 mg liquid formulation daily, week 0 vs week 7): over 30%
breathing problems (RSBQ) ([2]; compared to week 0, p=0.042): improvement
hand behaviors (RSBQ) ([2]; compared to week 0, p=0.042): improvement
waking during sleep (RSBQ) ([2]; compared to week 0, p=0.042): improvement
levels of glutamate biomarker in plasma [3]: decreased significantly
CGI-I index [4]: improvement
Rett Syndrome Behavior Questionnaire (RSBQ) [4]: improvement
pAkt levels, drug-treated vs vehicle-treated Fmr1 KO2 mice (pAkt; 1 mg/kg IP twice daily for two weeks, 5 animals per group, p=0.01): significantly lower
pAkt levels, drug-treated mutant mice vs vehicle-treated WT mice (pAkt; ANOVA): comparable
pERK levels, drug-treated vs vehicle-treated Fmr1 KO2 mice (pERK): mildly reduced
three neurobehavioral phenotypes (open field test, contextual fear conditioning, marble-burying) [5]: marked improvement or normalization
BDNF levels in the hippocampus (BDNF): normalized
safety and tolerability (healthy male volunteers; ascending single oral doses of 1, 10, 30, 40, 50 and 55 mg, healthy subjects): safe and well tolerated
observed adverse events (healthy male volunteers; at highest doses): only moderate and reversible dizziness and headache
minimum intolerable dose (MID) (healthy male volunteers; human, in vivo, po): 60 mg
serious adverse events (healthy male volunteers; single ascending oral doses): No serious adverse events occurred
maximum tolerable dose (MTD) (healthy male volunteers; single oral dose, based on frequency and intensity of adverse events): 55 mg
